ChEMBL document CHEMBL1121629, “1-(Aminoalkyl)-6-aryl-4-H-s-triazolo[4,3-a][1,4]benzodiazepines with antianxiety and antidepressant activity” (1980)

Key:
Format in all cases: functional
Mus musculus [1] = species on record: Mus musculus; assay: Tested for antagonism of pentylenetetrazole-induced clonic convulsions (P) in mice
Mus musculus [2] = species on record: Mus musculus; assay: Tested for potentiation of gamma-butyrolactone induced sleep (gamma-B) in mice
Mus musculus [3] = species on record: Mus musculus; assay: Tested for antagonism of nicotine-induced tonic extensor convulsions (TE) in mice
Mus musculus [4] = species on record: Mus musculus; assay: Tested for antagonism of nicotine-induced death (D) in mice
Mus musculus [5] = species on record: Mus musculus; assay: Tested for antagonism of oxotremorine hypothermia (OX) in mice
Mus musculus [6] = species on record: Mus musculus; assay: Tested for antagonism of bicuculline-induced tonic-extensor convulsions (B) in mice
Mus musculus [7] = species on record: Mus musculus; assay: Prolongation of hypoxic survival time (HS) in mice
Mus musculus [8] = species on record: Mus musculus; assay: Tested for potentiation of yohimbine toxicity in aggregated mice(Y)
Mus musculus [9] = species on record: Mus musculus; assay: Tested for stereotyped gnawing and licking behavior of mice pretreated with apomorphine (AG)

SMILES	ED50 (Mus musculus [1]) [mg/kg]	ED50 (Mus musculus [2]) [mg/kg]	ED50 (Mus musculus [3]) [mg/kg]	ED50 (Mus musculus [4]) [mg/kg]	ED50 (Mus musculus [5]) [mg/kg]	ED50 (Mus musculus [6]) [mg/kg]	ED50 (Mus musculus [7]) [mg/kg]	ED50 (Mus musculus [8]) [mg/kg]	ED50 (Mus musculus [9]) [mg/kg]
C#CCN(C)Cc1nnc2n1-c1ccc(Cl)cc1C(c1ccccc1)=NC2	0.3	0.3	0.14	0.14	30	0.5	> 50	18	4.4
CC(N)c1nnc2n1-c1ccccc1C(c1ccccc1Cl)=NC2 (centres undefined)	0.2	3	–	–	> 50	0.4	0.2	> 50	> 50
Clc1ccc2c(c1)C(c1ccccc1)=NCc1nnc(CCCN3CCOCC3)n1-2	10	10	5.6	5.6	> 50	7.1	7	> 50	> 50
CN(C)Cc1nnc2n1-c1ccc(Br)cc1C(c1ccccc1)=NC2	0.7	0.1	–	–	7.4	0.8	0.8	35.4	> 50
CC(N)c1nnc2n1-c1ccc(Cl)cc1C(c1ccccc1)=NC2 (centres undefined)	0.6	0.12	0.3	0.35	> 50	0.6	3	> 50	> 50
NCCc1nnc2n1-c1ccccc1C(c1ccccc1Cl)=NC2	> 50	20	–	–	> 50	> 50	20	> 50	> 50
CC(N)c1nnc2n1-c1ccc(Cl)cc1C(c1ccccc1Cl)=NC2 (centres undefined)	2.2	0.2	0.023	0.025	> 50	0.2	0.02	> 50	> 50
C#CCNC(C)c1nnc2n1-c1ccc(Cl)cc1C(c1ccccc1)=NC2 (centres undefined)	3.1	0.8	1.1	1.1	> 50	1.6	20	21	> 50
NCCc1nnc2n1-c1ccc(Br)cc1C(c1ccccn1)=NC2	> 50	30	–	–	30	> 50	> 50	30	> 50
NCCc1nnc2n1-c1ccc(Cl)cc1C(c1ccccc1)=NC2	10.5	7.4	7.1	6.3	4.4	17.7	> 50	50	35
CN(C)Cc1nnc2n1-c1ccc(Cl)cc1C(c1ccccc1)NC2 (centres undefined)	14.9	5.3	25	25	> 50	42	> 50	> 50	> 50
NCCc1nnc2n1-c1ccccc1C(c1ccccc1)=NC2	> 50	> 50	–	–	40	> 50	> 50	30	30
CNC(C)c1nnc2n1-c1ccc(Cl)cc1C(c1ccccc1)=NC2 (centres undefined)	4.4	3.7	0.9	1	> 50	9	0.5	30	50
Clc1ccc2c(c1)C(c1ccccc1)=NCc1nnc(CCCN3CCN(c4ccccc4)CC3)n1-2	> 50	10	89	79	–	> 50	> 50	–	–
CC(N)Cc1nnc2n1-c1ccccc1C(c1ccccc1)=NC2 (centres undefined)	> 50	> 50	–	–	> 50	> 50	> 50	40	> 50
CN(C)Cc1nnc2cc(-c3ccccc3)c3cc(Cl)ccc3n12	> 50	> 50	89	89	> 50	> 50	–	–	> 50
CN(C)CCc1nnc2n1-c1ccccc1C(c1ccccc1Cl)=NC2	5	> 50	–	–	> 50	> 50	7	30	> 50
CC(N)Cc1nnc2n1-c1ccc(Cl)cc1C(c1ccccc1Cl)=NC2 (centres undefined)	10.5	3.7	–	–	17.7	7.4	25	> 50	> 50
CN(C)Cc1nnc2n1-c1ccccc1C(c1ccccc1Cl)=NC2	10	> 10	0.13	–	> 30	17.8	0.5	> 30	> 30
